From patent US20070105162A1, “Monovalent avidin and streptavidin compositions” (Massachusetts Institute of Technology, priority 2005, published 2007)

What was measured:
[1] = Off-rate of 3H-biotin from streptavidin (cold biotin chase); type: binding; conditions: 50 μM cold biotin chase, 5 hours at 37° C., ± s.e.m.
Method: (Green, N. M. Methods in Enzymol. 184: 51-67, 1990). Dissociation was then initiated by addition of cold biotin at a final concentration of 50 μM and time-points taken over 5 hours at 37° C. 50 μL aliquots were removed and added to 200 μL 0.2M ZnSO4 chilled on ice, followed by 200 μL 0.2 M NaOH. The protein precipitate was pelleted by centrifugation at 16,500 g for 5 min, and ^3H-biotin in the supernatant was measured by liquid scintillation counting. Data were plotted as ln(fraction bound) versus time, and fit to a straight line by linear regression. Dissociation rates were deduced from the slope of the line and the equation: ln(fraction bound)=−koff(t) where fraction bound=(total ^3H-biotin−free ^3H-biotin at timepoint)/(total ^3H-biotin−free ^3H-biotin before cold biotin chase).

[2] = test system: biotinylated AP-neuroligin-1 on hippocampal neurons; assay: AP-neuroligin-1 clustering in hippocampal neurons labeled with streptavidin; type: cell-based, rat; conditions: two hour incubation at 37° C., Alexa Fluor 568 conjugate; ± s.e.m., n=9
Method: HeLa cells were grown in Dulbecco's Modified Eagle Medium (DMEM) with 10% Fetal Calf Serum, 50 U/mL penicillin and 50 μg/mL streptomycin. HeLa stably expressing AP-CFP-TM or Ala-CFP-TM have been previously described (Howarth, M. et al., Proc. Natl. Acad. Sci. USA 102: 7583-7588, 2005). Dissociated primary neuronal cultures were prepared from Embryonic Day 18 or 19 (E18/19) rats and transfected with Lipofectamine 2000 at DIV6 as in Levinson et al. (Levinson, J. N. et al., J. Biol. Chem. 280: 17312-17319, 2005). […]
Images of HeLa cells were collected on a Zeiss Axiovert 200M inverted epifluorescence microscope using a 40× oil-immersion lens and a MicroMAX CCD camera (Roper Scientific; Tucson, Ariz.). CFP (420DF20 excitation, 450DRLP dichroic, 475DF40 emission) and Alexa568 (560DF20 excitation, 585DRLP dichroic, 605DF30 emission) images were collected and analyzed using OpenLab software (Improvision; Lexington, Mass.). Fluorescence images were background-corrected. […] Images were scaled to 16 bits and analyzed in Northern Eclipse (Empix Imaging; Ontario, Canada) with user-written software. […] Results were then calculated in terms of clusters per micrometer of dendrite. For assessment of pre-synaptic terminals, clusters were determined as before and average grey levels of clusters were compared between transfected dendrites and untransfected dendrites within the same field of view. […]

[3] = test system: biotinylated AP-CFP-TM on HeLa cells; assay: Staining of biotinylated AP-CFP-TM on HeLa with Alexa Fluor 568-conjugated streptavidins; type: cell-based; conditions: Alexa Fluor 568 conjugate 10 μg/mL, 10 min at 4° C.
Method: Enzymatic biotinylation and imaging of HeLa transfectants were performed as previously described (Howarth, M. et al., Proc. Natl. Acad. Sci. USA 102: 7583-7588, 2005), except instead of 10 μM biotin and 1 mM ATP, we added 10 μM biotin-AMP (synthesized according to Coleman and Huang; Coleman, T. M. and Huang, F. Chem. Biol. 9: 1227-1236, 2002) to give equivalent biotinylation but minimizing the risk of purinoreceptor activation by ATP (Rathbone, M. P. et al., Prog. Neurobiol. 59: 663-690, 1999). […] Biotinylation of neurons was performed at day in vitro (DIV) 8 in Hanks' Balanced Salt Solution (HBSS) (Invitrogen) with 0.2 μM biotin ligase and 10 μM biotin-AMP for 5 min at 37° C. […] Neurons were washed with NeuroBasal media (Invitrogen) supplemented with B-27 (Invitrogen), 50 U/mL penicillin, 50 μg/mL streptomycin, and 0.2 mM L-glutamine and chased in the same medium for 0 or 2 hr at 37° C. Cells were then fixed in −20° C. methanol. […]
Images of HeLa cells were collected on a Zeiss Axiovert 200M inverted epifluorescence microscope using a 40× oil-immersion lens and a MicroMAX CCD camera (Roper Scientific; Tucson, Ariz.). CFP (420DF20 excitation, 450DRLP dichroic, 475DF40 emission) and Alexa568 (560DF20 excitation, 585DRLP dichroic, 605DF30 emission) images were collected and analyzed using OpenLab software (Improvision; Lexington, Mass.). Fluorescence images were background-corrected. […] Images were scaled to 16 bits and analyzed in Northern Eclipse (Empix Imaging; Ontario, Canada) with user-written software. […] Results were then calculated in terms of clusters per micrometer of dendrite. For assessment of pre-synaptic terminals, clusters were determined as before and average grey levels of clusters were compared between transfected dendrites and untransfected dendrites within the same field of view. […] “n” represents the number of transfected neurons for which clusters were measured. […]

[4] = Electrospray ionization mass spectrometry: biotin molecules bound per streptavidin tetramer; type: binding
Method: Biospin columns (Bio-Rad) were equilibrated by spinning 5 times in 500 μL of 15 mM ammonium acetate pH 7.8 at 1000 g for 2 min. Then 30-50 μL of 30 μM protein in PBS was buffer-exchanged into 15 mM ammonium acetate pH 7.8 using the pre-equilibrated Biospin columns by spinning for 20 s at 1000 g. To ensure that PBS was completely removed, the flow-through was again buffer-exchanged with a second pre-equilibrated column for 20 s. This procedure also removed free biotin when the starting 30 μM streptavidin forms were incubated with 200 μM biotin. Less than 2 min before introducing into the mass spectrometer, the buffer-exchanged samples were diluted with a solution of 1:1 15 mM ammonium acetate pH 7.8 and 78% acetonitrile, 0.01% trifluoroacetic acid.
(§1) An Advion nanospray robot (Advion BioSystems, Ithica, N.Y.) with a back-pressure of 0.45 Psi introduced the samples into the mass spectrometer, an 8.5 Tesla custom-built Electrospray Ionisation-Fourier Transform Mass Spectrometer. To visualize the non-covalent tetramers and non-covalent biotin binding in the high m/z range, the following settings were used: Chirp rate=750 Hz, Amplitude=0.5 V p-p, Tube lens=200 V, Capillary heater 2 V, Quad filter=−20 V, Skimmer=0 V, Capillary offset=34 V, X-fer=−110 V, Leak gas=4.2×10^−5 Torr. The capillary heater was kept low and the Quad filter and Skimmer were kept either high or off to prevent subunit dissociation. The transfer was set to this low value of −110 V in order to visualize the high m/z region.
The masses were calculated manually by first determining the charge state. The final mass was determined by multiplying the observed m/z by the charge and subtracting the mass corresponding to the addition of protons to give that charge. For example, for the 15+charge state of D4 an m/z of 3534.159 was obtained. (15×3534.159)-(15×1.00727) gave a mass for this ion of 52,997 Da. This calculation was repeated for each charge state and the mean and standard deviation reported. The spectra were calibrated with tetrameric streptavidin, after its monomer mass was determined under denaturing conditions (Mr=13,271.4 Da). Average masses were predicted from the DNA sequence, using the ExPASy PeptideMass Calculator (ca.expasy.org/tools/peptide-mass.html) and assuming removal of the N-terminal formyl-Methionine.
The different tetramers were purified using a Ni-nitrilotriacetic acid (NTA) column, eluting according to the number of His6-tags with increasing concentrations of imidazole. […] The tetramer composition was further confirmed by boiling the samples before loading on SDS-PAGE, to determine the ratio of A to D subunits (FIG. 1D), and by electrospray ionization mass spectrometry. In Table 1 (Schwartz, B. L. et al., J. of the Amer. Soc. for Mass Spec. 6: 459-465, 1995) the observed mass (±s.d.), determined by Electrospray Ionization-Mass Spectrometry, is compared to the mass predicted from the sequence. From the change (±s.e.m.) upon addition of biotin (mass 244.31), we determined how many biotin molecules were bound to each tetramer.
Electrospray ionization mass spectrometry was used to characterize the number of biotin molecules bound per tetramer. Spectra of the different streptavidin tetramers with or without biotin were acquired. […] The other chimeric tetramers bound one biotin per A subunit.

[5] = Electrospray ionization mass spectrometry: biotin molecules bound per avidin tetramer; type: binding; conditions: spectra with or without biotin
Method: Biospin columns (Bio-Rad) are equilibrated by spinning 5 times in 500 μL of 15 mM ammonium acetate pH 7.8 at 1000 g for 2 min. Then 30-50 μL of 30 μM protein in PBS is buffer-exchanged into 15 mM ammonium acetate pH 7.8 using the pre-equilibrated Biospin columns by spinning for 20 s at 1000 g. To ensure that PBS is completely removed, the flow-through is again buffer-exchanged with a second pre-equilibrated column for 20 s. This procedure also removes free biotin when the starting 30 μM avidin forms are incubated with 200 μM biotin. Less than 2 min before introducing into the mass spectrometer, the buffer-exchanged samples are diluted with a solution of 1:1 15 mM ammonium acetate pH 7.8 and 78% acetonitrile, 0.01% trifluoroacetic acid.
as §1, with “introduces” for “introduced”, “are” for “were”, “is” for “was”
The masses are calculated manually by first determining the charge state. The final mass is determined by multiplying the observed m/z by the charge and subtracting the mass corresponding to the addition of protons to give that charge. This calculation is repeated for each charge state and the mean and standard deviation reported. The spectra are calibrated with tetrameric avidin, after its monomer mass is determined under denaturing conditions. […]

Row | Substance | off-rate from biotin [1] | AP-neuroligin-1 clusters per micrometer of dendrite [2] | Alexa staining of biotinylated AP-CFP-TM [3] | # biotins (bound to each tetramer) ([4]; from mass change upon addition of biotin, 30 μM protein, 200 μM biotin) | biotin binding per tetramer by mass spectrometry (in words) ([4]; spectra with or without biotin) | biotin binding per avidin tetramer by mass spectrometry (in words) [5]
1 | wild-type streptavidin: Wild-type core streptavidin tetramer with 4 biotin binding sites (SEQ ID NO:2) [reference compound] | 5.17±0.25×10^−5 s^−1 | 0.266±0.011 clusters/μm | detected equally well | – | – | –
2 | A4: Wild-type streptavidin with a His6-tag, four Alive subunits (SEQ ID NO:4) [Tetramer A4] | – | – | – | 4 | all four subunits | all four subunits
